Experimental data reported in patent US10125134B2 (Mirati Therapeutics, Inc., priority 2016, dated 2018).
Like-named read-outs stand apart in the source and are kept apart here.

Experiments:
KRas G12C = KRas G12C (Homo sapiens, UniProt P01116, C118S/C51S/C80L/G12C); experiment: KRas G12C Modification Assay (LCMS detection of covalent adduct); format: binding; conditions: normalized percent of control; tested at 5 μM concentration for 3 hours
How it was run: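 Covalent modification was read by reverse-phase LC/MS of intact protein after compound exposure, each reaction stopped at its time point with 25 mM acetic acid. Unmodified-protein signal, taken as percent of total, was normalised to untreated protein and reported as POC.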

[1] = tested on: NCI-H358 cells (express KRas G12C), Phospho-ERK; experiment: Cellular inhibition of KRas G12C: Phospho-ERK in NCI-H358 cells; format: cell-based; conditions: pERK(Thr202/Tyr204) normalized with GAPDH, NCI-H358 cells, 3 hours, read-out: IC50
How it was run: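 IC50 derived by 4-parameter fit of GAPDH-normalized pERK(Thr202/Tyr204) signal, as percent of DMSO control. Signal came from in-cell immunodetection with infrared secondaries after 3 h compound exposure of KRas G12C NCI-H358 cells at 0.5% DMSO.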

SMILES	POC (KRas G12C)	IC50 ([1]; Homo sapiens, NCI-H358, 3 h) [nM]	IC50 ([1]; Homo sapiens) [nM]	IC50 [1] [nM]
Cc1cccc(N2CCc3c(nc(OC[C@@H]4CCCN4C)nc3N3CCN(C(=O)/C=C/CN(C)C)[C@@H](CC#N)C3)C2)c1C [Example 403, 2-((S)-1-((E)-4-(dimethylamino)but-2-enoyl)-4-(7-(2,3-dimethylphenyl)-2-(((S)-1-methylpyrrolidin-2-yl)methoxy)-5,6,7,8-tetrahydropyrido[3,4-d]pyrimidin-4-yl)piperazin-2-yl)acetonitrile]	C (“C”>50% POC)	0.1 to 1000		
C=CC(=O)N1CCN(c2nc(OC[C@@H]3CCCN3C)nc3c2CCN(c2ccc(F)c4ccccc24)C3)CC1CC#N (stereo partly drawn) [Example 246, 2-[4-[7-(4-fluoro-1-naphthyl)-2-[[(2S)-1-methylpyrrolidin-2-yl]methoxy]-6,8-dihydro-5H-pyrido[3,4-d]pyrimidin-4-yl]-1-prop-2-enoyl-piperazin-2-yl]acetonitrile]	C (“C”>50% POC)	0.1 to 1000		
C=CC(=O)N1CCN(c2nc(OC[C@@H]3CCCN3C)nc3c2CCN(c2ccccc2C(F)F)C3)CC1CC#N (stereo partly drawn) [Example 447, 2-(1-Acryloyl-4-(7-(2-(difluoromethyl)phenyl)-2-(((S)-1-methylpyrrolidin-2-yl)methoxy)-5,6,7,8-tetrahydropyrido[3,4-d]pyrimidin-4-yl)piperazin-2-yl)acetonitrile]	C (“C”>50% POC)	0.1 to 1000		
C=CC(=O)N1CCN(c2ncnc3c2CCN(c2c(O)cccc2F)C3)CC1 [Example 4, 1-(4-(7-(2-fluoro-6-hydroxyphenyl)-5,6,7,8-tetrahydropyrido[3,4-d]pyrimidin-4-yl)piperazin-1-yl)prop-2-en-1-one]	A (“A”≤25% POC)	> 1000		
C=CC(=O)N1CCN(c2nc(OCCN(C)C)nc3c2CCN(c2cc(O)cc4ccccc24)C3)C[C@H]1C [Example 15, (R)-1-(4-(2-(2-(dimethylamino)ethoxy)-7-(3-hydroxynaphthalen-1-yl)-5,6,7,8-tetrahydropyrido[3,4-d]pyrimidin-4-yl)-2-methylpiperazin-1-yl)prop-2-en-1-one]	C (“C”>50% POC)	> 1000		
C=CC(=O)N1CCN(c2nc(OCCCN3CCOCC3)nc3c2CCN(c2c(C)ccc4[nH]ncc24)C3)CC1 [Example 44, 1-(4-(7-(5-methyl-1H-indazol-4-yl)-2-(3-morpholinopropoxy)-5,6,7,8-tetrahydropyrido[3,4-d]pyrimidin-4-yl)piperazin-1-yl)prop-2-en-1-one]	C (“C”>50% POC)		> 1000	
C=CC(=O)N1CCN(c2nc(OC[C@@H]3CCCN3C)nc3c2CCN(c2cccc(C)c2C)C3)C[C@@H]1CC#N [Example 393, 2-((S)-1-acryloyl-4-(7-(2,3-dimethylphenyl)-2-(((S)-1-methylpyrrolidin-2-yl)methoxy)-5,6,7,8-tetrahydropyrido[3,4-d]pyrimidin-4-yl)piperazin-2-yl)acetonitrile]	C (“C”>50% POC)	0.1 to 1000		
C=CC(=O)N1CCN(c2nc(OC[C@@H]3CCCN3CCOC)nc3c2CCN(c2cccc4ccccc24)C3)CC1CC#N (stereo partly drawn) [Example 380, 2-(1-acryloyl-4-(2-(((S)-1-(2-methoxyethyl)pyrrolidin-2-yl)methoxy)-7-(naphthalen-1-yl)-5,6,7,8-tetrahydropyrido[3,4-d]pyrimidin-4-yl)piperazin-2-yl)acetonitrile]	C (“C”>50% POC)			0.1 to 1000
C=CC(=O)N1CCN(c2nc(OC[C@@H]3CCN(C)C3)nc3c2CCN(c2cccc4ccccc24)C3)C[C@@H]1CC#N [Example 409, 2-((S)-1-acryloyl-4-(2-(((R)-1-methylpyrrolidin-3-yl)methoxy)-7-(naphthalen-1-yl)-5,6,7,8-tetrahydropyrido[3,4-d]pyrimidin-4-yl)piperazin-2-yl)acetonitrile]	C (“C”>50% POC)	0.1 to 1000		
C=CC(=O)N1CCN(c2nc(OC[C@@H]3CCCN3C)nc3c2CCN(c2cnccc2C2CC2)C3)C[C@@H]1CC#N [Example 352, 2-[(2S)-4-[7-(4-cyclopropyl-3-pyridyl)-2-[[(2S)-1-methylpyrrolidin-2-yl]methoxy]-6,8-dihydro-5H-pyrido[3,4-d]pyrimidin-4-yl]-1-prop-2-enoyl-piperazin-2-yl]acetonitrile]	C (“C”>50% POC)	0.1 to 1000		
C=CC(=O)N1CCN(c2nc(O[C@H](C)CN(C)C)nc3c2CCN(c2cccc4ccccc24)C3)CC1CC#N (stereo partly drawn) [Example 151, 2-(1-acryloyl-4-(2-(((R)-1-(dimethylamino)propan-2-yl)oxy)-7-(naphthalen-1-yl)-5,6,7,8-tetrahydropyrido[3,4-d]pyrimidin-4-yl)piperazin-2-yl)acetonitrile]	B (“B”>25% POC−≤50% POC)	> 1000		
C=CC(=O)N1CCN(c2nc(-c3cccc(CN4CCOCC4)c3)nc3c2CCN(c2cc(O)cc4ccccc24)C3)CC1 [Example 186]	B (“B”>25% POC−≤50% POC)		> 1000	
C=CC(=O)N1CCN(c2nc(OC[C@H]3CCCN3C)nc3c2CCN(c2cccc(F)c2C(F)(F)F)C3)C[C@@H]1CC#N [Example 274, 2-((S)-1-acryloyl-4-(7-(3-fluoro-2-(trifluoromethyl)phenyl)-2-(((R)-1-methylpyrrolidin-2-yl)methoxy)-5,6,7,8-tetrahydropyrido[3,4-d]pyrimidin-4-yl)piperazin-2-yl)acetonitrile]	C (“C”>50% POC)	0.1 to 1000		
C=CC(=O)N1CCN(c2nc(OC[C@H]3CCCN3C)nc3c2CCN(c2ccc(F)c4ccccc24)C3)C[C@@H]1CC#N [Example 318, 2-[(2S)-4-[7-(4-fluoro-1-naphthyl)-2-[[(2R)-1-methylpyrrolidin-2-yl]methoxy]-6,8-dihydro-5H-pyrido[3,4-d]pyrimidin-4-yl]-1-prop-2-enoyl-piperazin-2-yl]acetonitrile]	C (“C”>50% POC)	0.1 to 1000		
C=CC(=O)N1CCN(c2nc(O[C@H](C)CN(C)C)nc3c2CCN(c2cc(O)ccc2OC(F)(F)F)C3)CC1 [Example 78, (R)-1-(4-(2-((1-(dimethylamino)propan-2-yl)oxy)-7-(5-hydroxy-2-(trifluoromethoxy)phenyl)-5,6,7,8-tetrahydropyrido[3,4-d]pyrimidin-4-yl)piperazin-1-yl)prop-2-en-1-one]	C (“C”>50% POC)		> 1000	
C=CC(=O)N1CCN(c2nc(OCCN3CC(F)(F)C3)nc3c2CCN(c2cc(O)cc4ccccc24)C3)CC1 [Example 138, 1-[4-[2-[2-(3,3-difluoroazetidin-1-yl)ethoxy]-7-(3-hydroxy-1-naphthyl)-6,8-dihydro-5H-pyrido[3,4-d]pyrimidin-4-yl]piperazin-1-yl]prop-2-en-1-one]	C (“C”>50% POC)	> 1000		
C=CC(=O)N1CCN(c2nc(O[C@H](C)[C@H]3CCCN3C)nc3c2CCN(c2cc(O)cc4ccccc24)C3)C[C@@H]1CC#N [Example 348, 2-[(2S)-4-[7-(3-hydroxy-1-naphthyl)-2-[(1R)-1-[(2R)-1-methylpyrrolidin-2-yl]ethoxy]-6,8-dihydro-5H-pyrido[3,4-d]pyrimidin-4-yl]-1-prop-2-enoyl-piperazin-2-yl]acetonitrile]	C (“C”>50% POC)	0.1 to 1000		
C=CC(=O)N1[C@H](C)CN(c2nc(OCCCN3CCOCC3)nc3c2CCN(c2cc(O)cc4ccccc24)C3)C[C@@H]1C [Example 191, 1-((2S,6R)-4-(7-(3-hydroxynaphthalen-1-yl)-2-(3-morpholinopropoxy)-5,6,7,8-tetrahydropyrido[3,4-d]pyrimidin-4-yl)-2,6-dimethylpiperazin-1-yl)prop-2-en-1-one]	C (“C”>50% POC)		> 1000	
C=CC(=O)N1CCN(c2nc(OC[C@@H]3CCCN3C)nc3c2CCN(c2ccccc2C(F)(F)F)C3)CC1CC#N (stereo partly drawn) [Example 210, 2-(1-acryloyl-4-(2-(((S)-1-methylpyrrolidin-2-yl)methoxy)-7-(2-(trifluoromethyl)phenyl)-5,6,7,8-tetrahydropyrido[3,4-d]pyrimidin-4-yl)piperazin-2-yl)acetonitrile]	C (“C”>50% POC)		0.1 to 1000	
C=CC(=O)N1CCN(c2nc(OC[C@@H]3CCCN3C)nc3c2CCN(c2cccc4cccc(C)c24)C3)C[C@H]1CC#N [Example 458, 2-[(2R)-4-[7-(8-methyl-1-naphthyl)-2-[[(2S)-1-methylpyrrolidin-2-yl]methoxy]-6,8-dihydro-5H-pyrido[3,4-d]pyrimidin-4-yl]-1-prop-2-enoyl-piperazin-2-yl]acetonitrile]	C (“C”>50% POC)	0.1 to 1000		
C=CC(=O)N1CCN(c2nc(OCCN3CCC(OC)C3)nc3c2CCN(c2cc(O)cc4ccccc24)C3)CC1 (centres unmarked) [Example 136, 1-[4-[7-(3-hydroxy-1-naphthyl)-2-[2-(3-methoxypyrrolidin-1-yl)ethoxy]-6,8-dihydro-5H-pyrido[3,4-d]pyrimidin-4-yl]piperazin-1-yl]prop-2-en-1-one]	C (“C”>50% POC)	> 1000		
C=CC(=O)N1CCN(c2nc(OC[C@@H]3CCCN3C)nc3c2CCN(c2ccccc2C(F)(F)F)C3)C[C@@H]1CC#N [Example 379, 2-((S)-1-acryloyl-4-(2-(((S)-1-methylpyrrolidin-2-yl)methoxy)-7-(2-(trifluoromethyl)phenyl)-5,6,7,8-tetrahydropyrido[3,4-d]pyrimidin-4-yl)piperazin-2-yl)acetonitrile]	C (“C”>50% POC)			0.1 to 1000
